Structures can show the parent of a compound that is named as a salt.
Target: T1, acid ceramidase (hACR) (Homo sapiens, UniProt Q13510)
T1 construct: expressed in transfected cells; cell lysate used
T1 sequence (Q13510 143-395 limits assumed): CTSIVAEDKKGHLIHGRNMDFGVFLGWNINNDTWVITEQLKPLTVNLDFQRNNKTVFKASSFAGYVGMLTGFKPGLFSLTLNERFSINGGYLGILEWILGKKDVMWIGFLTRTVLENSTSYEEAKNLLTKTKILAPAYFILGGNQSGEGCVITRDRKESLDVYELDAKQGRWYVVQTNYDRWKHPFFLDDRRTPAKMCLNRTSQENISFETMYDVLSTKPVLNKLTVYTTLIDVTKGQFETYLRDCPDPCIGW
T1 sequence (Q13510 22-142 limits assumed): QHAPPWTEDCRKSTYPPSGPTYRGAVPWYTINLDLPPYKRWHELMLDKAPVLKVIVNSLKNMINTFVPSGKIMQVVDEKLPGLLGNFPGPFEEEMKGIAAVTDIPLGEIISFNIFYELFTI
Assay: Acid ceramidase inhibition, biochemical fluorescent assay with cell lysates overexpressing acid ceramidase, substrate Rbm14-12
Conditions: cell lysates overexpressing acid ceramidase; 1 hr preincubation at RT; pH 4.5; substrate Rbm14-12 6.3 μM; read-out: hACR IC50
Experimental: The ability of exemplary compounds to inhibit acid ceramidase was measured.
Cell lysates overexpressing acid ceramidase were used as the enzyme source for compound potency determination in a biochemical fluorescent assay. Briefly, compounds were preincubated with 10 µg protein of cell lysates in a dose-response manner for 1 hr at RT in the assay buffer containing 25 mM NaAC and 100 mM NaCl, pH 4.5. The reaction was initiated by the addition of substrate Rbm14-12 at a final concentration of 6.3 μM. The reaction was run at RT for 1 hr before it was stopped by the addition of the stopping buffer containing 20% methanol (v/v), 1 mg/ml NaIO4, 0.1 M glycine, pH 10.6. The samples were incubated with the stopping buffer at RT for 1 hr to allow the fluorescent product to be formed. Finally the plate was read with SpectraMax i3 plate reader (Molecular Devices) at ex360 nm and em446 nm. Data were collected and used to determine the IC50 values of compounds by curve fitting to the four-parameter inhibition equation.
The symbol “A” indicates inhibition of less than 0.2 μM; the symbol “B” indicates inhibition in the range of 0.2 μM up to 1 μM; and the symbol “C” indicates inhibition of greater than 1 μM.

SMILES | IC50
CCCCCNC(=O)N1CCN(c2ccccc2)C(=O)C1(C)C [Example 107, 2,2-Dimethyl-3-oxo-N-pentyl-4-phenylpiperazine-1-carboxamide] | 200 to 1000 nM
CC1(C)CC(=O)C(Cc2ccccc2)CN1C(=O)NCCCCc1ccccc1 (stereo not drawn) [Example 121, 5-Benzyl-2,2-dimethyl-4-oxo-N-(4-phenylbutyl)piperidine-1-carboxamide] | < 200 nM
CCCCCNC(=O)N1CCN(C2CC2)CC1(C)C [Example 112, 4-Cyclopropyl-2,2-dimethyl-N-pentylpiperazine-1-carboxamide] | < 200 nM
CCCCCNC(=O)N1CCC(N2CCCCC2)C[C@@H]1C (mixture of isomers) [Example 97, (2S)-Methyl-N-pentyl-4-(1-piperidyl)piperidine-1-carboxamide] | 200 to 1000 nM
CC1(C)CN(C2CC2)CC(c2ccccc2)N1C(=O)NCCCCc1ccccc1 (stereo not drawn) [Example 169, 4-Cyclopropyl-2,2-dimethyl-6-phenyl-N-(4-phenylbutyl)piperazine-1-carboxamide] | < 200 nM
COc1ccc(C2COCC(C)(C)N2C(=O)NCC2CCCCC2)cc1 (stereo not drawn) [Example 150, N-(Cyclohexylmethyl)-5-(4-methoxyphenyl)-3,3-dimethylmorpholine-4-carboxamide] | < 200 nM
CCCCCNC(=O)N1C(c2ccc(F)cc2)CN(C)CC1(C)C (stereo not drawn) [Example 167, 6-(4-Fluorophenyl)-2,2,4-trimethyl-N-pentylpiperazine-1-carboxamide hydrochloride] | < 200 nM
CC1(C)COCC(c2ccccc2)N1C(=O)NC1CCCCC1 (stereo not drawn) [Example 135, N-Cyclohexyl-3,3-dimethyl-5-phenylmorpholine-4-carboxamide] | 200 to 1000 nM
CCCCCNC(=O)N1[C@H](C)COC[C@@H]1c1ccc(F)cc1 [Example 142, (3S,5R)-3-(4-Fluorophenyl)-5-methyl-N-pentylmorpholine-4-carboxamide] | 200 to 1000 nM
COc1ccc(C2COCC(C)(C)N2C(=O)NCCC(C)C)cc1 (stereo not drawn) [Example 147, N-iso-Pentyl-5-(4-methoxyphenyl)-3,3-dimethylmorpholine-4-carboxamide] | < 200 nM
CCCCCNC(=O)N1C/C(=C\c2ccccc2)C(N2CCCCC2)CC1(C)C (stereo not drawn) [Example 130, (5E)-5-Benzylidene-2,2-dimethyl-N-pentyl-4-(1-piperidyl)piperidine-1-carboxamide] | < 200 nM
CC1CCC(c2ccccc2)CN1C(=O)NCCCCc1ccccc1 (mixture of isomers) [Example 80, 2-Methyl-5-phenyl-N-(4-phenylbutyl)piperidine-1-carboxamide] | < 200 nM
COc1ccc(C2COCC(C)(C)N2C(=O)NCc2ccc(F)cc2)cc1 (stereo not drawn) [Example 151, N-[(4-Fluorophenyl)methyl]-5-(4-methoxyphenyl)-3,3-dimethylmorpholine-4-carboxamide] | < 200 nM
CC(C)[C@H]1CN(C2CC2)CCN1C(=O)NCCCCc1ccccc1 [Example 117, (2S)-4-Cyclopropyl-2-isopropyl-N-(4-phenylbutyl)piperazine-1-carboxamide] | > 1000 nM
CC1(C)CC(N2CCCCC2)C(Cc2ccccc2)CN1C(=O)NCCc1ccccc1 (stereo not drawn) [Example 126, 5-Benzyl-2,2-dimethyl-N-(2-phenylethyl)-4-(1-piperidyl)piperidine-1-carboxamide] | < 200 nM
CCCCCNC(=O)N1[C@@H]2CC[C@H]1CC(c1ccccc1)C2 (mixture of isomers) [Example 82, endo- and exo-N-Pentyl-3-phenyl-8-azabicyclo[3.2.1]octane-8-carboxamide] | > 1000 nM
CC1(C)C(=O)N(c2ccccc2)CCN1C(=O)NCCCCc1ccccc1 [Example 106, 2,2-Dimethyl-3-oxo-4-phenyl-N-(4-phenylbutyl)piperazine-1-carboxamide] | < 200 nM
CCCCCNC(=O)N1CCC(N2CCCCC2)CC1C (stereo not drawn) [Example 95, 2-Methyl-N-pentyl-4-(1-piperidyl)piperidine-1-carboxamide] | 200 to 1000 nM
CC1(C)CC(N2CCCCC2)C(Cc2ccccc2)CN1C(=O)NCCCCc1ccccc1 (stereo not drawn) [Example 125, 5-Benzyl-2,2-dimethyl-N-(4-phenylbutyl)-4-(1-piperidyl)piperidine-1-carboxamide] | < 200 nM
CC1(C)CN(C2CC2)CCN1C(=O)NCCCCc1ccccc1 [Example 111, 4-Cyclopropyl-2,2-dimethyl-N-(4-phenylbutyl)piperazine-1-carboxamide] | < 200 nM
CC1(C)CC(N2CCCCC2)/C(=C/c2ccccc2)CN1C(=O)NCCc1ccccc1 (stereo not drawn) [Example 129, (5E)-5-Benzylidene-2,2-dimethyl-N-(2-phenylethyl)-4-(1-piperidyl)piperidine-1-carboxamide] | 200 to 1000 nM
CCCCCNC(=O)N1C(c2ccc(F)cc2)COCC1(C)C (single isomer, unassigned) [Example 138, (5S) or (5R)-5-(4-Fluorophenyl)-3,3-dimethyl-N-pentylmorpholine-4-carboxamide] | < 200 nM
CCCCCNC(=O)N1C(C)CC(N2CCCCC2)CC1C (stereo not drawn) [Example 98, 2,6-Dimethyl-N-pentyl-4-(1-piperidyl)piperidine-1-carboxamide hydrochloride] | < 200 nM
CCCCCNC(=O)N1CC(Cc2ccccc2)C(N2CCCCC2)CC1(C)C (stereo not drawn) [Example 127, 5-Benzyl-2,2-dimethyl-N-pentyl-4-(1-piperidyl)piperidine-1-carboxamide] | < 200 nM
CCCCCCCNC(=O)N1C(c2ccccc2)COCC1(C)C (stereo not drawn) [Example 134, N-Heptyl-3,3-dimethyl-5-phenylmorpholine-4-carboxamide] | < 200 nM
CC[C@H](C)NC(=O)N1C(c2ccc(OC)cc2)COCC1(C)C (mixture of isomers) [Example 155, (5R) AND (5S)-5-(4-Methoxyphenyl)-3,3-dimethyl-N-[(1S)-1-methylpropyl]morpholine-4-carboxamide] | < 200 nM

Further lines, results first:

IC50 | SMILES
< 200 nM | CN1CC(C)(C)N(C(=O)NCCCCc2ccccc2)CC1c1ccccc1 (stereo not drawn) [Example 166, 2,2,4-Trimethyl-5-phenyl-N-(4-phenylbutyl)piperazine-1-carboxamide]
< 200 nM | CC1(C)CN(c2ccccc2)CCN1C(=O)NCCCCc1ccccc1 [Example 103, 2,2-Dimethyl-4-phenyl-N-(4-phenylbutyl)piperazine-1-carboxamide]
< 200 nM | CN1CCN(C2CCN(C(=O)NCCCCc3ccccc3)C(C)(C)C2)CC1 (stereo not drawn) [Example 87, 2,2-Dimethyl-4-(4-methylpiperazin-1-yl)-N-(4-phenylbutyl)piperidine-1-carboxamide dihydrochloride]
< 200 nM | CCCCCNC(=O)N1C(c2ccc(OC)c(F)c2)COCC1(C)C (stereo not drawn) [Example 161, 5-(3-Fluoro-4-methoxyphenyl)-3,3-dimethyl-N-pentylmorpholine-4-carboxamide]
> 1000 nM | COc1ccc(C2COCC(C)(C)N2C(=O)NCC(F)(F)F)cc1 (stereo not drawn) [Example 152, 5-(4-Methoxyphenyl)-3,3-dimethyl-N-(2,2,2-trifluoroethyl)morpholine-4-carboxamide]
> 1000 nM | CC1CN(C(=O)NCCCCc2ccccc2)C(C)(C)CC1=O (stereo not drawn) [Example 119, 2,2,5-Trimethyl-4-oxo-N-(4-phenylbutyl)piperidine-1-carboxamide]
200 to 1000 nM | C[C@@H]1CN(C(=O)NCCCCc2ccccc2)[C@@H](C)CN1C1CC1 [Example 113, (2S,5R)-4-Cyclopropyl-2,5-dimethyl-N-(4-phenylbutyl)piperazine-1-carboxamide]
> 1000 nM | CC1(C)CN(C(=O)NCCCCc2ccccc2)C(C)(C)CC1=O [Example 120, 2,2,5,5-Tetramethyl-4-oxo-N-(4-phenylbutyl)piperidine-1-carboxamide]
< 200 nM | CCCCCNC(=O)N1C(c2ccc(OC)nc2)COCC1(C)C (stereo not drawn) [Example 159, 5-(6-Methoxy-3-pyridyl)-3,3-dimethyl-N-pentylmorpholine-4-carboxamide]
> 1000 nM | CC1(C)CN(C(=O)OCc2ccccc2)CC(c2ccccc2)N1C(=O)NCCCCc1ccccc1 (stereo not drawn) [Example 164, Benzyl 3,3-dimethyl-5-phenyl-4-(4-phenylbutylcarbamoyl)piperazine-1-carboxylate]
< 200 nM | CC1(C)CCC(N2CCCCC2)CN1C(=O)NCCCCc1ccccc1 (stereo not drawn) [Example 99, 2,2-Dimethyl-N-(4-phenylbutyl)-5-(1-piperidyl)piperidine-1-carboxamide]
> 1000 nM | CCCCCNC(=O)N1C[C@@H](C)N(C2CC2)C[C@@H]1C [Example 114, (2S,5R)-4-cyclopropyl-2,5-dimethyl-N-pentylpiperazine-1-carboxamide]
> 1000 nM | CC1(C)C(=O)N(c2ccccc2)CCN1C(=O)NCCOCc1ccccc1 [Example 108, N-(2-Benzyloxyethyl)-2,2-dimethyl-3-oxo-4-phenylpiperazine-1-carboxamide]

Source: patent US20220380314A1, “SUBSTITUTED, SATURATED AND UNSATURATED N-HETEROCYCLIC CARBOXAMIDES AND RELATED COMPOUNDS FOR THEIR USE IN THE TREATMENT OF MEDICAL DISORDERS” (Bial - R&D Investments, S.A., priority 2019, published 2022)
